Source: patent US8426448B2, “1,5-diphenyl-pyrrolidin-2-one compounds as CB-1 ligands” (Eli Lilly and Company, priority 2008, dated 2013)
Structures can show the parent of a compound that is named as a salt.

Molecular target: T1, CYP2C9 (Homo sapiens, UniProt P11712)
T1 construct: pooled, mixed gender, human liver microsomes; from tissue; host or cells: pooled, mixed gender human liver microsomes
Experiment: Human CYP fingerprinting, sulfaphenazole inhibition
Assay type: in vitro ADME
Conditions: 4 μM, human liver microsomes, 30 min, 5 μM sulfaphenazole
Protocol: CYP fingerprinting is well established technique and is used as an indication of potential risk of drug-drug interactions in the pharmaceutical sciences. Compounds of the present invention may be assayed by well known methods, essentially as follows: Compounds are incubated at 37° C. at a final concentration of 4 μM with pooled, mixed gender, human liver microsomes and 1 mM NADPH (Nicotine Adenine Dinucleotide Phosphate) (final conc.) for 0 and 30 min. without any CYP inhibitor and with each CYP inhibitor in separate incubations for 30 min. Each inhibitor is specific for an individual cytochrome P450. The specific inhibitors used for CYPs 2C9, 2D6 and 3A were sulfaphenazole, quinidine and ketoconazole, respectively. Ketoconazole (CYP3A) is made up at 25 mM in DMSO and then diluted in buffer to a final concentration of 10 μM. Quinidine (CYP2D6) is made up at 5 mM in 50/50 acetonitrile/water and then diluted in buffer to a final concentration of 10 μM. Sulfaphenazole (CYP2C9) is made up at 100 mM in DMSO and then diluted in buffer to a final concentration of 5 μM. Samples are analyzed by LC-MS in positive or negative electrospray mode using a Waters Acquity Ultra Performance LC coupled to a MicroMass Q-T of-2 mass spectrometer.
Data are analyzed using MetaboLynx™ version 4.1. […]

T1 sequence (P11712 whole entry): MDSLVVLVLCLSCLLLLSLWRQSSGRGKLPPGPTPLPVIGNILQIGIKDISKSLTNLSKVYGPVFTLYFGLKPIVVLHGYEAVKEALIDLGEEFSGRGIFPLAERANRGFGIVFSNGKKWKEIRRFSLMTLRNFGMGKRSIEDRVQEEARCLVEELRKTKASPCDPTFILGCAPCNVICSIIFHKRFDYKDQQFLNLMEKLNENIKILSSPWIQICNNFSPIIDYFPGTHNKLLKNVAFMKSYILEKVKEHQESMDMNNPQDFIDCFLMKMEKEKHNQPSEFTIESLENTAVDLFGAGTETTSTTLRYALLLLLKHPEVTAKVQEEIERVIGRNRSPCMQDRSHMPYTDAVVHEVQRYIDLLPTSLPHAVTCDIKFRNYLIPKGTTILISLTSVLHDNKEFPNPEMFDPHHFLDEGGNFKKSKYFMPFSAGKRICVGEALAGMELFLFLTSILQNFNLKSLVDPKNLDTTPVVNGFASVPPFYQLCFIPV

CC(C)(N[C@@H]1C[C@H](c2cccc(C(F)(F)F)c2)N(c2ccc(OC(F)(F)F)cc2)C1=O)c1cccc(C(F)(F)F)n1 [28 HCl salt, (3R,5R)-3-[1-methyl-1-(6-trifluoromethyl-pyridin-2-yl)-ethylamino]-1-(4-trifluoromethoxy-phenyl)-5-(3-trifluoromethyl-phenyl)-pyrrolidin-2-one]
Risk of Drug Drug Interaction (DDI) CYP2C9: low (a reduction in metabolite peak area of less than 30% (relative to the uninhibited control incubation) receives a designation of low risk of Drug Drug Interaction (DDI))
